US20150175599A1, “FAAH Inhibitors” (Ironwood Pharmaceuticals, Inc., priority 2010, published 2015)

Biological target: T1, human FAAH-1 (Homo sapiens, UniProt O00519)
T1 sequence (O00519 1-579): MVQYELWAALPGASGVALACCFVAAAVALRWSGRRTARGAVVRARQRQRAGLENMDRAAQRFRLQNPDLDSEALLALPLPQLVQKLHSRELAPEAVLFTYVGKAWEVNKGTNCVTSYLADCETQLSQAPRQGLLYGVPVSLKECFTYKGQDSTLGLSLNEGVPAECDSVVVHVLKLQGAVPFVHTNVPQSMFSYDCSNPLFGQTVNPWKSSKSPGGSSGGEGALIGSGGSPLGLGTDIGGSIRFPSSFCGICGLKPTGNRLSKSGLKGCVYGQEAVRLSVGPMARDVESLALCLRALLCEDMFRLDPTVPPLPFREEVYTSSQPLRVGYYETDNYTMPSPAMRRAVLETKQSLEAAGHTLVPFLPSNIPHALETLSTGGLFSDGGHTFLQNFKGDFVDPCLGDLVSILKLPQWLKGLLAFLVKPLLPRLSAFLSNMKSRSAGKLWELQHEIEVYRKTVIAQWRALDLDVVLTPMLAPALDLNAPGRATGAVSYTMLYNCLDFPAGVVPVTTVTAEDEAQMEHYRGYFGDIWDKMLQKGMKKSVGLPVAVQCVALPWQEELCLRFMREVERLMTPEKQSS
Assay: Whole cell anandamide hydrolysis assay (HeLa clone 5c5 transfected with human FAAH-1)
Format: cell-based
Settings: HeLa clone 5c5 expressing human FAAH-1; read-out: human FAAH whole cell IC50
Procedure: FAAH activity was assayed in whole cells using methods disclosed previously (Maccarone et al., 1998 J Biol. Chem. 273:32332 and Bisogno et al., 1997 J Biol. Chem. 272:3315). In addition to the cell lines described in Maccarone et al. and Bisogno et al., MCF7 (ATCC designation HTB-22) and T84 (ATCC designation CCL-248) cell lines were also used in these assays.
cDNA expression clone for human FAAH-1 (in pcDNA3 vector) (Genbank Accession U82535; obtained from Benjamin Cravatt, Scripps Research Institute, La Jolla, Calif.) was linearized by digestion with BglII (New England Biolabs) and transfected by calcium phosphate into human HeLa cells (ATCC catalog #CCL-2). […] Following transfection, a stable HeLa-derived clone, designated 5c5, was isolated by single colony purification and expanded and maintained in modified Eagles medium (MEM; VWR catalog #45000-300) containing 10% fetal bovine serum (FBS), 2 mM L-glutamine, and 0.5 mg/mL G-418 (Sigma catalog #G5013).
Clone 5c5 (50,000 cells in 150 μL) was seeded into 96-well plates and incubated overnight (5% CO2, 37° C.). Media was carefully replaced with 180 μL DMEM/F12 medium (VWR catalog #45000-350) containing 15 mM HEPES, pH 7.4 and 0.1% fatty acid free BSA (Sigma catalog #A0281). Then, 2 μL of 100× desired final concentrations of certain exemplary compounds described herein were made up in DMSO, added to wells containing cells, and plates were incubated at 37° C. for 10 min. Next, 20 μL of 5 μM anandamide (Cayman catalog #90050) spiked with 8 μCi of anandamide-(ethanolamine-1-[^3H]) (American Radiolabeled Chemicals, Inc., catalog #ART 626) was added to the cells and the plates were incubated for an additional 15 min at 37° C. The reactions were terminated by chilling the plates on ice and adding 20 μL of 0.5M of potassium phosphate buffer (adjusted to pH 2.1 with phosphoric acid).
The acidified reactions were transferred to 96-well filter plates (0.25 mL capacity/well, 1.2 micron glass fiber pre-filter packed above 0.65 micron pore-size PVDF membrane, Millipore catalog MSFCN6B50) containing 25 μL charcoal (neutral activated carbon, Fisher Scientific catalog C170-500) per well. Prior to the assay, charcoal was measured and loaded onto the plate using an aluminum 96-well column loading device (Millipore catalog MACL09625). The filter plate was assembled over an empty 96-well plate (Costar) using a centrifuge alignment frame (Millipore catalog MACF09604) to allow for collection of the filtrate in the receiver plate. The charcoal glass-fiber filter plates were pre-washed with methanol by centrifugation 650×g for 10 min). Next, 80 μL of water was added to the wells of the pre-washed 96 well charcoal filter plate. Then, 90 μL of the acidified reaction mixture was added to the water in the wells of the charcoal plate. The samples were centrifuged as above. The substrate remained bound to the charcoal, whereas the [^3H]-ethanolamine product formed flowed through and was transferred to the microplates containing scintillation cocktail and quantified in a micro-plate scintillation counter (Perkin-Elmer Microbeta). Control reactions with either no cells or cells treated with DMSO alone were performed in triplicate and used to define background (no cells) and 100% activity (DMSO alone).
Following subtraction of background radioactivity, data were expressed as percent inhibition relative to 100% activity and fit with a nonlinear regression curve using GraphPad Prism Software (GraphPad Software Inc). IC50 values were calculated from the resulting dose-response curves constrained at top and bottom to 100% and 0%, respectively.

Row | SMILES | IC50
1 | COc1cc(NC(=O)C(=O)c2c(C)n(Cc3ccc(Cl)cc3)c3ccc(OC(C)=O)cc23)ccn1 [Compound 1, 1-(4-chlorobenzyl)-3-(2-(2-methoxypyridin-4-ylamino)-2-oxoacetyl)-2-methyl-1H-indol-5-yl acetate] | < 0.1 µM
2 | COc1cc(NC(=O)C(=O)c2c(C)n(Cc3ccc(Cl)cc3)c3ccc(O)cc23)ccn1 [Compound 2, 2-(1-(4-chlorobenzyl)-5-hydroxy-2-methyl-1H-indol-3-yl)-N-(2-methoxypyridin-4-yl)-2-oxoacetamide] | < 0.1 µM
3 | COc1cc(NC(=O)C(=O)c2c(C)n(Cc3ccc(Cl)cc3)c3ccc(C(C)=O)cc23)ccn1 [Compound 5, 2-(5-acetyl-1-(4-chlorobenzyl)-2-methyl-1H-indol-3-yl)-N-(2-methoxypyridin-4-yl)-2-oxoacetamide] | < 0.1 µM
4 | COc1cc(NC(=O)C(=O)c2c(C)n(Cc3ccc(Cl)cc3)c3ccc(C(=O)N(C)C)cc23)ccn1 [Compound 6, 1-(4-chlorobenzyl)-3-(2-(2-methoxypyridin-4-ylamino)-2-oxoacetyl)-N,N,2-trimethyl-1H-indole-5-carboxamide] | 0.1 to 1 µM
5 | COc1cc(NC(=O)C(=O)c2c(C)n(Cc3ccc(Cl)cc3)c3ccc(N(C)C(=O)OC(C)(C)C)cc23)ccn1 [Compound 7, Tert-butyl(1-(4-chlorobenzyl)-3-(2-((2-methoxypyridin-4-yl)amino)-2-oxoacetyl)-2-methyl-1H-indol-5-yl)(methyl)carbamate] | 0.1 to 1 µM
6 | COc1cc(NC(=O)C(=O)c2c(C)n(Cc3ccc(Cl)cc3)c3ccc(CO)cc23)ccn1 [Compound 8, 2-(1-(4-chlorobenzyl)-5-(hydroxymethyl)-2-methyl-1H-indol-3-yl)-N-(2-methoxypyridin-4-yl)-2-oxoacetamide] | < 0.1 µM
7 | CNc1ccc2c(c1)c(C(=O)C(=O)Nc1ccnc(OC)c1)c(C)n2Cc1ccc(Cl)cc1 [Compound 9, 2-(1-(4-chlorobenzyl)-2-methyl-5-(methylamino)-1H-indol-3-yl)-N-(2-methoxypyridin-4-yl)-2-oxoacetamide] | < 0.1 µM
8 | COc1cc(NC(=O)C(=O)c2c(C)n(Cc3ccc(Cl)cc3)c3ccc(COC(C)=O)cc23)ccn1 [Compound 10, (1-(4-chlorobenzyl)-3-(2-(2-methoxypyridin-4-ylamino)-2-oxoacetyl)-2-methyl-1H-indol-5-yl)methyl acetate] | < 0.1 µM
9 | COCc1ccc2c(c1)c(C(=O)C(=O)Nc1ccnc(OC)c1)c(C)n2Cc1ccc(Cl)cc1 [Compound 11, 2-(1-(4-chlorobenzyl)-5-(methoxymethyl)-2-methyl-1H-indol-3-yl)-N-(2-methoxypyridin-4-yl)-2-oxoacetamide] | < 0.1 µM
10 | COc1ccc2c(c1)c(C(=O)C(=O)Nc1ccnc(OC)c1)c(C)n2Cc1cnc(Cl)cn1 [Compound 12, 2-(1-((5-chloropyrazin-2-yl)methyl)-5-methoxy-2-methyl-1H-indol-3-yl)-N-(2-methoxypyridin-4-yl)-2-oxoacetamide] | < 0.1 µM
11 | COc1cc(NC(=O)C(=O)c2c(C)n(Cc3ncc(Cl)cc3Cl)c3cc(F)c(OC)cc23)ccn1 [Compound 13, 2-(1-((3,5-dichloropyridin-2-yl)methyl)-6-fluoro-5-methoxy-2-methyl-1H-indol-3-yl)-N-(2-methoxypyridin-4-yl)-2-oxoacetamide] | < 0.1 µM
12 | COc1cc(NC(=O)C(=O)c2c(C)n(Cc3ccc(F)cc3F)c3cc(F)c(OC)cc23)ccn1 [Compound 14, 2-(1-(2,4-difluorobenzyl)-6-fluoro-5-methoxy-2-methyl-1H-indol-3-yl)-N-(2-methoxypyridin-4-yl)-2-oxoacetamide] | < 0.1 µM
13 | COc1cc(NC(=O)C(=O)c2c(C)n(Cc3ccc(Cl)cc3)c3ccc(C#N)cc23)ccn1 [Compound 15, 2-(1-(4-chlorobenzyl)-5-cyano-2-methyl-1H-indol-3-yl)-N-(2-methoxypyridin-4-yl)-2-oxoacetamide] | < 0.1 µM
14 | COc1ccc2c(c1)c(C(=O)C(=O)Nc1ccnc(OC)c1)c(C)n2Cc1ccncc1 [Compound 16, 2-(5-methoxy-2-methyl-1-(pyridin-4-ylmethyl)-1H-indol-3-yl)-N-(2-methoxypyridin-4-yl)-2-oxoacetamide] | < 0.1 µM
15 | COc1cc(NC(=O)C(=O)c2c(C)n(Cc3ccc(Cl)cc3)c3ccc(N(C)C)cc23)ccn1 [Compound 17, 2-(1-(4-chlorobenzyl)-5-(dimethylamino)-2-methyl-1H-indol-3-yl)-N-(2-methoxypyridin-4-yl)-2-oxoacetamide] | < 0.1 µM
16 | COc1cc(NC(=O)C(=O)c2c(C)n(Cc3ccc(Cl)cc3)c3ccc(Br)cc23)ccn1 [Compound 18, 2-(5-bromo-1-(4-chlorobenzyl)-2-methyl-1H-indol-3-yl)-N-(2-methoxypyridin-4-yl)-2-oxoacetamide] | < 0.1 µM
17 | COc1cc(NC(=O)C(=O)c2c(C)n(Cc3ccc(Cl)cc3)c3ccc([N+](=O)[O-])cc23)ccn1 [Compound 19, 2-(1-(4-chlorobenzyl)-2-methyl-5-nitro-1H-indol-3-yl)-N-(2-methoxypyridin-4-yl)-2-oxoacetamide] | < 0.1 µM
18 | COc1cc(NC(=O)C(=O)c2c(C)n(Cc3ccc(Cl)cc3)c3ccc(N)cc23)ccn1 [Compound 20, 2-(5-amino-1-(4-chlorobenzyl)-2-methyl-1H-indol-3-yl)-N-(2-methoxypyridin-4-yl)-2-oxoacetamide] | < 0.1 µM
19 | COc1cc(NC(=O)C(=O)c2c(C)n(Cc3ccc(Cl)cc3)c3ccc(C(F)(F)F)cc23)ccn1 [Compound 21, 2-(1-(4-chlorobenzyl)-2-methyl-5-(trifluoromethyl)-1H-indol-3-yl)-N-(2-methoxypyridin-4-yl)-2-oxoacetamide] | < 0.1 µM
20 | COc1cc(NC(=O)C(=O)c2c(C)n(Cc3ccc(Cl)cc3)c3ccc(NC(C)=O)cc23)ccn1 [Compound 22, 2-(5-acetamido-1-(4-chlorobenzyl)-2-methyl-1H-indol-3-yl)-N-(2-methoxypyridin-4-yl)-2-oxoacetamide] | < 0.1 µM
21 | COc1cc(NC(=O)C(=O)c2c(C)n(Cc3ccc(Cl)cc3)c3ccc(OC(F)(F)F)cc23)ccn1 [Compound 23, 2-(1-(4-chlorobenzyl)-2-methyl-5-(trifluoromethoxy)-1H-indol-3-yl)-N-(2-methoxypyridin-4-yl)-2-oxoacetamide] | < 0.1 µM
22 | CCN(CC)c1ccc2c(c1)c(C(=O)C(=O)Nc1ccnc(OC)c1)c(C)n2Cc1ccc(Cl)cc1 [Compound 24, 2-(1-(4-chlorobenzyl)-5-(diethylamino)-2-methyl-1H-indol-3-yl)-N-(2-methoxypyridin-4-yl)-2-oxoacetamide] | 0.1 to 1 µM
23 | CNCc1ccc2c(c1)c(C(=O)C(=O)Nc1ccnc(OC)c1)c(C)n2Cc1ccc(Cl)cc1 [Compound 25, 2-(1-(4-chlorobenzyl)-2-methyl-5-((methylamino)methyl)-1H-indol-3-yl)-N-(2-methoxypyridin-4-yl)-2-oxoacetamide] | 0.1 to 1 µM
